Source: patent US20240270758A1, “PYRIDINO-OR PYRIMIDO-CYCLIC COMPOUND, PREPARATION METHOD THEREFOR AND MEDICAL USE THEREOF” (Genfleet Therapeutics (Shanghai) Inc., priority 2021, published 2024)

Assays:
Type in all cases: cell-based, human
[1] = tested on: p-ERK in AGS cells (KRAS^G12D mutation); experiment: Cell p-ERK detection assay; conditions: 3 h incubation, HTRF
Experimental: AGS was purchased from ATCC; Cat. NO.: CRL-1739; F12K was purchased from Gibco; Cat. NO.: 21127-022; FBS was purchased from Gibco; Cat. NO.: 10099-141C; Trypsin (containing EDTA) was purchased from Gibco; Cat. NO.: 25200-072; DMSO was purchased from VWRAMRESCO; Cat. NO.: 0231-500ML; 96-well cell culture plate was purchased from Corning; Cat. NO.: 3599; An white background opaque 96-well plate was purchased from Cisbio; Cat. NO.: 66PL96025; Advance ERK phospho-T202/Y204 kit was purchased from Cisbio; Cat. NO.: 64AERPEH; Cell Counters were purchased from CHEMOMETEC; Model NO.: NC-200; microplate reader was purchased from PerkinElmer; Model NO.: Envison.
AGS is an endogenous human gastric adenocarcinoma cell line containing KRAS^G12D mutation, cultured in F12K+10% FBS medium. On the first day of the experiment, cells in the logarithmic growth phase were taken, digested with trypsin (containing EDTA), collected, and counted, and approximately 20,000 cells/well were inoculated in 96-well cell culture plates and cultured overnight in a 5% CO2 incubator. A 1000×3.16-fold gradient concentration stock of the compound was prepared using DMSO, diluted 200-fold into a 5× compound stock using the medium described above, and a 5× compound stock was added to each cell culture well the day after cell inoculating at a final concentration of 1× and a DMSO content of 0.1%. DMSO was used as an experimental control. After the compound was added and the incubation was continued for 3 h, the medium in the culture wells was removed, […] of cell lysis solution (from Advance ERK phospho-T202/Y204 kit, the same below) was added to each well, mixed well and incubated for 30 min, then […] of the mixed solution was transferred to a white background opaque 96-well plate, and another well was taken as a blank well with adding […] of cell lysis solution. After the transfer, […] of p-ERK HTRF antibody mixed solution (from Advance ERK phospho-T202/Y204 kit) was added to each well, after incubation for 4 h, HTRF fluorescence value (RLU) was read by a microplate reader, and p-ERK level inhibition ratio of the compound was calculated IR (%)=(RLU control-RLU compound)/(RLU control-RLU blank)×100%, compound concentration and corresponding cell p-ERK level inhibition ratio were fitted using Prism 8 four-parameter method, and IC50 value was calculated.

[2] = tested on: AGS cells (KRAS^G12D mutation); experiment: Cell proliferation inhibition assay (3D, CellTiter-Glo), AGS; conditions: 3D cell model, 5 days
Description: (§1) AsPC-1 was purchased from ATCC; Cat. NO.: CRL-1682; AGS was purchased from ATCC; Cat. NO.: CRL-1739; RPMI1640 was purchased from Gibco; Cat. NO.: 11875-093 2235123; F12K was purchased from Gibco; Cat. NO.: 21127-022; FBS was purchased from Gibco; Cat. NO.: 10099-141C; Trypsin (containing EDTA) was purchased from Gibco; Cat. NO.: 25200-072; CellTiter Glo-3D was purchased from Progema; Cat. NO.: G9683; 384-well sphere plates were purchased from coming; Cat. NO.: 3830; White background opaque 384-well plates were purchased from coming; Cat. NO.: 3570; Cell Counters were purchased from CHEMOMETEC; Model NO.: NC-200; microplate reader was purchased from PerkinElmer; Model NO.: Envison;
(§2) AsPC-1 is an endogenous human pancreatic cancer cell containing KRAS^G12D mutation, which is cultured in RPMI-1640 medium containing 10% FBS; AGS human gastric cancer cell line containing KRAS^G12D mutation, cultured in F-12K medium containing 10% FBS. Cells in the logarithmic growth phase were taken, digested with trypsin (containing EDTA), harvested and counted, and inoculated with 800 AsPC-1 cells/well or 400 AGS cells/well, respectively, in 384-well sphere plates and cultured overnight at 5% C02 to establish a 3D cell model. A 3.16-fold gradient concentration stock solution of 1000× compound was prepared using DMSO, diluted 100-fold into a 10× compound stock solution using media, and a 10× compound stock solution was added to each cell culture well the day after cell inoculating at a final concentration of 1× with a DMSO content of 0.1%. DMSO was used as an experimental control (control) and culture medium as a blank control (blank). After the addition of compounds, the cells were cultured for 5 days. […] CellTiter-Glo working solution was added to each well, mixed well, and incubated for 30 min. After standing for 30 min at room temperature, 40 μl of the mixed solution was transferred to a white background opaque 384-well plate. Luminescence chemiluminescence value was read on a microplate reader, and the cell proliferation inhibition ratio was calculated, IR (%)=(RLU control-RLU compound)/(RLU control-RLU blank)×100%. XLFit four-parameter method was used to fit the gradient dilution concentration of compounds and the corresponding cell proliferation inhibition ratio, and the IC50 value was calculated. […] Results for exemplary of the example compounds are shown in Table 3 below. - indicates not detected.

[3] = tested on: AsPC-1 cells (KRAS^G12D mutation); experiment: Cell proliferation inhibition assay (3D, CellTiter-Glo), AsPC-1; conditions: 3D cell model, 5 days
Description: as §1, §2

**Q.** Which IC50 ([1]; Homo sapiens, AGS, 3 h) does the source give for C#Cc1cccc2cccc(-c3c(Cl)cc4c(N5C[C@H]6CC[C@@H](C5)N6)nc(OCC56CCCN5CC(=C)C6)nc4c3F)c12 (stereo partly drawn) [Example Z193, 4-((1R,5S)-3,8-diazabicyclo[3.2.1]octan-3-yl)-6-chloro-7-(8-ethynylnaphthalen-1-yl)-8-fluoro-2-((2-methylenetetrahydro-1H-pyrrolizin-7a(5H)-yl)methoxy)quinazoline] here?
**A.** 623 nM

**Q.** How did the IC50 [2] turn out when C#Cc1cccc2cc(N)cc(-c3ncc4c(N5C[C@H]6CC[C@@H](C5)N6)nc(OCC56CC(=C)CN5CC(=C)C6)nc4c3F)c12 [Example Z214, 4-(4-((1R,5S)-3,8-diazabicyclo[3.2.1]octan-3-yl)-2-((2,6-dimethylenetetrahydro-1H-pyrrolizin-7a(5H)-yl)methoxy)-8-fluoropyrido[4,3-d]pyrimidin-7-yl)-5-ethynylnaphthalen-2-amine] was run?
**A.** 106 nM

**Q.** What about the IC50 [3] of the same compound?
**A.** 611 nM

**Q.** What about the IC50 [1] of the same compound?
**A.** 105 nM

**Q.** C#Cc1cccc2cc(O)cc(-c3ncc4c(N5C[C@H]6CC[C@@H](C5)N6)nc(OCC56CC(=C)CN5CC5(CC5)C6)nc4c3F)c12 (stereo partly drawn) [Example Z23, 4-(4-((1R,5S)-3,8-diazabicyclo[3.2.1]octan-3-yl)-8-fluoro-2-((6′-methylenedihydro-1′H,3′H-spiro[cyclopropane-1,2′-pyrrolizin]-7a′(5′H)-yl)methoxy)pyrido[4,3-d]pyrimidin-7-yl)-5-ethynylnaphthalen-2-ol] was tested. Which IC50 ([2]; Homo sapiens, AGS, 120 h) did it give?
**A.** 4.7 nM

**Q.** What about the IC50 ([3]; Homo sapiens, ASPC1, 120 h) of the same compound?
**A.** 33.2 nM

**Q.** And the IC50 ([1]; Homo sapiens, AGS, 3 h)?
**A.** 0.76 nM

**Q.** C#Cc1cccc2cc(O)cc(-c3ncc4c(N5C[C@H]6CC[C@@H](C5)N6)nc(OCC56CC(=C)CN5CC(=C)C6)nc4c3F)c12 [Example Z21] was tested. Which IC50 [2] did it give?
**A.** 6.5 nM

**Q.** And the IC50 [3]?
**A.** 14.7 nM

**Q.** What about the IC50 [1] of the same compound?
**A.** 0.6 nM

**Q.** How did the IC50 ([2]; Homo sapiens, AGS, 120 h) turn out when C#Cc1cccc2cc(O)cc(-c3ncc4c(N5C[C@H]6CC[C@@H](C5)N6)nc(OCC56CCCN5CC(=C(F)F)C6)nc4c3F)c12 (stereo partly drawn) [Example Z27, 4-(4-((1R,5S)-3,8-diazabicyclo[3.2.1]octan-3-yl)-2-((2-(difluoromethylene)tetrahydro-1H-pyrrolizine 7a(5H)-yl)methoxy)-8-fluoropyrido[4,3-d]pyrimidin-7-yl)-5-ethynylnaphthalen-2-ol] was run?
**A.** 3.1 nM

**Q.** What about the IC50 ([3]; Homo sapiens, ASPC1, 120 h) of the same compound?
**A.** 6.9 nM

**Q.** And the IC50 ([1]; Homo sapiens, AGS, 3 h)?
**A.** 1.1 nM

**Q.** How did the IC50 [1] turn out when C#Cc1cccc2c(N)ccc(-c3ncc4c(N5CC6CCC(C5)N6)nc(OCC56CC(=C)CN5CC(=C)C6)nc4c3F)c12 [Example Z209] was run?
**A.** 464 nM

**Q.** How did the IC50 ([1]; Homo sapiens, AGS, 3 h) turn out when C#Cc1c(Cl)ccc2cccc(-c3ncc4c(N5C[C@H]6CC[C@@H](C5)N6)nc(OCC56CC(=C)CN5CC(=C)C6)nc4c3F)c12 [Example Z195, 4-((1R,5S)-3,8-diazabicyclo[3.2.1]octan-3-yl)-7-(7-chloro-8-ethynylnaphthalen-1-yl)-2-((2,6-dimethylenetetrahydro-1H-pyrrolizin-7a(5H)-yl)methoxy)-8-fluoropyrido[4,3-d]pyrimidine] was run?
**A.** 162 nM

**Q.** C#Cc1cccc2cc(O)cc(-c3ncc4c(N5C[C@H]6CC[C@@H](C5)[C@H]6O)nc(OC[C@@]56CCCN5C[C@H](F)C6)nc4c3F)c12 [Example Z205-2, (1R, 5S, 8S)-3-(7-(8-ethynyl-3-hydroxynaphthalen-1-yl)-8-fluoro-2-(((2R,7aS)-2-fluorotetrahydro-1H-pyrrolizin-7a(5H)-yl)methoxy)pyrido[4,3-d]pyrimidin-4-yl)-3-azabicyclo[3.2.1]octan-8-ol] was tested. Which IC50 [1] did it give?
**A.** 206 nM

**Q.** For C#Cc1cc(F)cc2cccc(-c3ncc4c(N5CC6CCC(C5)N6)nc(OCC56CC(=C)CN5CC(=C)C6)nc4c3F)c12 [Example Z198], which IC50 [1] is on record?
**A.** 89.7 nM

**Q.** With C#Cc1cccc2cc(O)cc(-c3cc4nc(OCC56CCCN5CC(=C)C6)nc(N5CC6CCC(C5)N6)c4cn3)c12 (stereo not drawn) [Example Z191, 4-(4-(3,8-diazabicyclo[3.2.1]octan-3-yl)-2-((2-methylenetetrahydro-1H-pyrrolizin-7a(5H)-yl)methoxy)pyrido[4,3-d]pyrimidin-7-yl)-5-ethynylnaphthalen-2-ol] as the compound, how does the IC50 ([1]; Homo sapiens, AGS, 3 h) read?
**A.** 612 nM

**Q.** C#Cc1cccc2c(F)c(O)cc(-c3ncc4c(N5CC6CCC(C5)N6)nc(OCC56CC(=C)CN5CC(=C)C6)nc4c3F)c12 [Example Z203, 4-(4-(3,8-diazabicyclo[3.2.1]octan-3-yl)-2-((2,6-dimethylenetetrahydro-1H-pyrrolizin-7a(5H)-yl)methoxy)-8-fluoropyrido[4,3-d]pyrimidin-7-yl)-5-ethynyl-1-fluoronaphthalen-2-ol] was tested. Which IC50 ([1]; Homo sapiens, AGS, 3 h) did it give?
**A.** 25.6 nM

**Q.** C#Cc1cccc2cc(O)cc(-c3ncc4c(N5C[C@H]6CC[C@@H](C5)[C@@H]6O)nc(OC[C@@]56CCCN5C[C@H](F)C6)nc4c3F)c12 [Example Z205-1, (1R,5S,8R)-3-(7-(8-ethynyl-3-hydroxynaphthalen-1-yl)-8-fluoro-2-(((2R,7aS)-2-fluorotetrahydro-1H-pyrrolizin-7a(5H)-yl)methoxy)pyrido[4,3-d]pyrimidin-4-yl)-3-azabicyclo[3.2.1]octan-8-ol] was tested. Which IC50 [1] did it give?
**A.** 612 nM

**Q.** C#Cc1cccc2cc(O)cc(-c3ncc4c(N5CC6CCC(C6)C5)nc(OC[C@@]56CCCN5C[C@H](F)C6)nc4c3F)c12 [Example Z192, 4-(4-((1R,5S)-3-azabicyclo[3.2.1]octan-3-yl)-8-fluoro-2-(((2R,7aS)-2-fluorotetrahydro-1H-pyrrolin-7a(5H)-yl)methoxy)pyrido[4,3-d]pyrimidin-7-yl)-5-ethynylnaphthalen-2-ol] was tested. Which IC50 [1] did it give?
**A.** 93.5 nM

**Q.** How did the IC50 ([1]; Homo sapiens, AGS, 3 h) turn out when C#Cc1cccc2cc(O)cc(-c3ncc4c(N5C[C@H]6CC[C@@H](C5)N6)nc(OCC56CC(=C)CN5[C@@H]5C[C@@H]5C6)nc4c3F)c12 (stereo partly drawn) [Example Z26, 4-(4-((1R,5S)-3,8-diazabicyclo[3.2.1]octan-3-yl)-8-fluoro-2-(((1aR,6aR)-4-methylenehexahydrocyclopropa[b]pyrrolizin-5a(3H)-yl)methoxy)pyrido[4,3-d]pyrimidin-7-yl)-5-ethynylnaphthalen-2-ol] was run?
**A.** 2.76 nM

**Q.** Which IC50 ([1]; Homo sapiens, AGS, 3 h) does the source give for C#Cc1cccc2c(O)ccc(-c3ncc4c(N5C[C@H]6CC[C@@H](C5)N6)nc(OCC56CC(=C)CN5CC(=C)C6)nc4c3F)c12 [Example Z208, 4-(4-((1R,5S)-3,8-diazabicyclo[3.2.1]octan-3-yl)-2-((2,6-dimethylenetetrahydro-1H-pyrrolizin-7a(5H)-yl)methoxy)-8-fluoropyrido[4,3-d]pyrimidin-7-yl)-5-ethynylnaphthalen-1-ol] here?
**A.** 9.04 nM

**Q.** C#Cc1cccc2nc(N)cc(-c3ncc4c(N5CC6CCC(C5)N6)nc(OCC56CC(=C)CN5CC(=C)C6)nc4c3F)c12 [Example Z201, 4-(4-(3,8-diazabicyclo[3.2.1]octan-3-yl)-2-((2,6-dimethylenetetrahydro-1H-pyrrolizin-7a(5H)-yl)methoxy)-8-fluoropyrido[4,3-d]pyrimidin-7-yl)-5-ethynylquinolin-2-amine] was tested. Which IC50 ([1]; Homo sapiens, AGS, 3 h) did it give?
**A.** 238 nM
